Source: ChEMBL document CHEMBL5126571, “Development of pyrazolo[3,4-d]pyrimidin-4-one scaffold as novel CDK2 inhibitors: Design, synthesis, and biological evaluation” (Bioorg Med Chem Lett, 2022)

These compounds were tested against Cyclin-dependent kinase 2 (Homo sapiens, UniProt P24941) (assay: Binding affinity to CDK2 (unknown origin)).
`CC(C)(C)n1nc(-c2cccc(NC(=O)/C(C#N)=C/c3ccccc3[N+](=O)[O-])c2)c2c(=O)[nH]cnc21` was tested, and the Ki was 12.3 µM. `Cc1cc(NS(=O)(=O)c2ccc(Nc3n[nH]c4nc[nH]c(=O)c34)cc2)no1` gave a Ki of 4.84 µM. `CC(C)(C)n1nc(-c2cccc(NC(=O)/C(C#N)=C/c3cccc(Br)c3)c2)c2c(=O)[nH]cnc21` gave a Ki of 14.7 µM. With `CC(C)(C)n1nc(-c2cccc(NC(=O)/C(C#N)=C/c3cccc(C(F)(F)F)c3)c2)c2c(=O)[nH]cnc21` the Ki was 5.59 µM. `CC(C)(C)n1nc(-c2cccc(NC(=O)/C(C#N)=C/C=C/c3ccccc3)c2)c2c(=O)[nH]cnc21` showed a Ki of 6.25 µM. In the case of `CC(C)(C)n1nc(-c2cccc(NC(=O)/C(C#N)=C/c3ccccc3O)c2)c2c(=O)[nH]cnc21`, the Ki is reported as 0.35 µM. `CC(C)(C)n1nc(-c2cccc(NC(=O)/C(C#N)=C/c3ccccc3)c2)c2c(=O)[nH]cnc21` gave a Ki of 2.2 µM. With `CC(C)(C)n1nc(-c2cccc(NC(=O)/C(C#N)=C/c3ccc([N+](=O)[O-])cc3)c2)c2c(=O)[nH]cnc21` the Ki was 1.95 µM. In the case of `CC(C)(C)/C=C(\C#N)C(=O)Nc1cccc(-c2nn(C(C)(C)C)c3nc[nH]c(=O)c23)c1`, the Ki is reported as 2.57 µM. With `CC(C)(C)n1nc(-c2cccc(NC(=O)/C(C#N)=C/c3ccc(C(=O)O)cc3)c2)c2c(=O)[nH]cnc21` the Ki was 1.4 µM. `CC(C)(C)n1nc(-c2cccc(NC(=O)/C(C#N)=C/c3cccc(Cl)c3)c2)c2c(=O)[nH]cnc21` gave a Ki of 3.1 µM. `CC(C)(C)n1nc(-c2cccc(NC(=O)/C(C#N)=C/c3ccccc3Br)c2)c2c(=O)[nH]cnc21` showed a Ki of 1.31 µM. For `COc1ccc(/C=C(\C#N)C(=O)Nc2cccc(-c3nn(C(C)(C)C)c4nc[nH]c(=O)c34)c2)cc1`, the Ki was 9.7 µM. `CC(C)(C)n1nc(-c2cccc(NC(=O)/C(C#N)=C/c3cccc([N+](=O)[O-])c3)c2)c2c(=O)[nH]cnc21` was tested, and the Ki was 2.46 µM. `CCCC/C=C(\C#N)C(=O)Nc1cccc(-c2nn(C(C)(C)C)c3nc[nH]c(=O)c23)c1` was tested, and the Ki was 11.6 µM. Compound `CC(C)(C)n1nc(-c2cccc(NC(=O)/C(C#N)=C/c3ccc(O)cc3)c2)c2c(=O)[nH]cnc21` has a Ki of 0.52 µM. Compound `CC(C)(C)n1nc(-c2cccc(NC(=O)/C(C#N)=C/c3ccc(Br)cc3)c2)c2c(=O)[nH]cnc21` has a Ki of 3.63 µM. For `CC(C)(C)n1nc(-c2cccc(NC(=O)/C(C#N)=C/c3ccc(F)cc3)c2)c2c(=O)[nH]cnc21`, the Ki was 2.87 µM. Work on `CC(C)(C)n1nc(-c2cccc(NC(=O)/C(C#N)=C/c3cc([N+](=O)[O-])cc([N+](=O)[O-])c3)c2)c2c(=O)[nH]cnc21` yielded a Ki of 1.64 µM.

The compounds below were run on MCF7 (assay: Antiproliferative activity against human MCF7 cells at 4 uM by CCK-8 assay).
Assay type: functional
`CC(C)(C)n1nc(-c2cccc(NC(=O)/C(C#N)=C/c3ccccc3)c2)c2c(=O)[nH]cnc21` showed an inhibition at 4 µM of 30%.

What follows are compounds tested on MCF7 (assay: Antiproliferative activity against human MCF7 cells by CCK-8 assay).
Assay type: functional, cell-based
`CC(C)(C)n1nc(-c2cccc(NC(=O)/C(C#N)=C/c3ccccc3)c2)c2c(=O)[nH]cnc21` gave an IC50 of 21.7 µM. With `COc1cc([C@@H]2c3cc4c(cc3[C@@H](O[C@@H]3O[C@@H]5CO[C@@H](C)O[C@H]5[C@H](O)[C@H]3O)[C@H]3COC(=O)[C@H]23)OCO4)cc(OC)c1O` [ETOPOSIDE] the IC50 was 18.8 µM.
